Read-outs that look alike come from different tables or passages of the source.
Tests used:
[1] = tested on: PAF aggregation of washed rabbit platelets; assay: Inhibition of PAF (AGEPC) activity / disaggregation during AGEPC-induced aggregation of washed rabbit platelets; format: cell-based; details: for IC50: Oryctolagus cuniculus, Platelet
washed rabbit platelets = assay: Aggregation of washed rabbit platelets (procedure of Demopoulos et al.); format: cell-based; details: for EC50: Oryctolagus cuniculus, Platelet, final concentrations; for cytotoxicity of the aggregation: washed rabbit platelets
rabbit platelets = assay: [3H]Serotonin secretion by platelets; format: cell-based; details: Oryctolagus cuniculus, Platelet; 2 min; final concentrations; read-out: 50% secretion of 3H-serotonin at 2 min
Method: The procedure is as follows: PAF and the various test lipid compounds are assessed for platelet stimulatory activity as briefly described. Rabbit platelets, internally labeled with [^3 H]serotonin (New England Nuclear; 28.2 Ci/mmol) are washed on Ficoll-Paque cushions and adjusted to 2.5×10^8 platelets/ml of Tyrode's buffer, pH 7.2. Appropriate dilutions of PAF or the test lipids are prepared in pyrogen-free 0.15M NaCl containing 2.5 mg/ml of crystallized bovine serum albumin; the albumin is required for dispersion of PAF and the test lipids. Four microliters of the various dilutions of PAF and test lipids are added to 200 μl of prewarmed (37° C.) [^3 H]serotonin-labeled platelets in plastic test tubes and the reaction mixture was incubated for 60 s at which time 20 μl of cold 1.5 m formaldehyde were added to stop the reactions. The tubes were immediately cooled to 0° C., centrifuged at 2200×g for 10 min and the supernatants were assayed for percentage of [^3 H]serotonin secretion relative to 100% controls prepared by the addition of Triton X-100 to 200 μl of the starting platelet suspension. The data were plotted linearly and 1 unit of activity was defined as the amount of PAF or test lipids required to effect 50% serotonin release. […]

[2] = tested on: Tetrahymena pyriformis cells; assay: Glycogenolysis in intact Tetrahymena pyriformis cells; format: cell-based; details: glucose measured, FIG. 3
Method: The results were obtained using the following procedure: Tetrahymena pyriformis cells, in log phase, are spun down, washed with saline and resuspended in Tyrodes solution. After 30 min of incubation, the compounds III and IV in bovine serum albumin solution are added and aliquots taken at different time intervals. The aliquots are treated for 2 min in boiled water, sonicated and glucose measured by the method of Bergmeyer et al. (Methods of Enzymatic Analysis, 3, 1196 (Academic Press, N.Y. 1974), the teachings of which are incorporated herein.

rats = assay: Systolic blood pressure in rats (procedure of Tselepis et al.); format: in vivo, rat
Description: Biochem. Physiol. 87C(1),41-46 (1987), the teachings of which are incorporated herein.

[3] = Table, final molar concentration, for 2 × 10^-10 M AGEPC, read-out: IC50
[4] = against 2×10^-10 M PAF, final concentrations, read-out: IC50 for 2×10^-10 M PAF

EC50 (washed rabbit platelets) [µM] | EC50 (rabbit platelets) [µM] | IC50 [1, 3] [µM] | IC50 [1, 4] [µM] | Molecule | effect on aggregation when added during AGEPC-induced aggregation ([1]; added during AGEPC (PAF)-induced aggregation, FIG. 4) | cytotoxicity of the aggregation (washed rabbit platelets) | glycogenolysis [2] | fall in systolic blood pressure (SBP) (rats)
 |  |  |  | thrombin | no effect on platelet aggregation |  |  | 
2 | 9 | 28 | 28 | CCCCCCCCC(OC(C)=O)C(CCCCCCCCOCC(COC(C)=O)OC(C)=O)OC(C)=O (stereo not shown) [Compound IV, Tetra-Acetyl-9,10-Dihydroxy-Octadecyl Glycerol] |  | non-cytotoxic |  | 
 |  |  |  | 1-O-alkyl-2-acetyl-sn-glyceryl-3-phosphorylcholine [PAF] |  |  | dramatic influence on glycogenolysis | fall in the systolic blood pressure
0.2 | 2 | 16 | 16 | CCCCCCCCC(O)C(O)CCCCCCCCOCC(O)CO (stereo not shown) [Compound III, 9,10-Dihydroxy-Octadecyl Glycerol] |  | non-cytotoxic |  | 
